Test results taken from ChEMBL document CHEMBL1201862, “PubChem BioAssay data set” (2004).
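Five compound concentrations were applied to cells in 96-well plates for 48 hours; endpoints were derived by simple linear interpolation of the resulting dose-response curve. GI50 = concentration required for 50% inhibition of growth.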 The source made the active and inactive calls. Cut-off read from the data, not from the text of the source: active = GI50 up to about 1.1 µM and inactive = higher.

Experiments:
Experiment in all cases: NCI tumour cell line growth inhibition, 48 h
ACHN = test system: ACHN
SK-MEL-28 = test system: SK-MEL-28
T47D = test system: T47D
NCI/ADR-RES = test system: NCI/ADR-RES
IGROV-1 = test system: IGROV-1
MDA-MB-435 = test system: MDA-MB-435
SK-MEL-2 = test system: SK-MEL-2
RPMI-8226 = test system: RPMI-8226
786-0 = test system: 786-0
SNB-19 = test system: SNB-19
SK-MEL-5 = test system: SK-MEL-5
BT-549 = test system: BT-549
HL-60 = test system: HL-60
K562 = test system: K562
A549 = test system: A549
CAKI-1 = test system: CAKI-1
LOX IMVI = test system: LOX IMVI
UO-31 = test system: UO-31
Malme-3M = test system: Malme-3M
Hs-578T = test system: Hs-578T

| SMILES | GI50 (ACHN) | GI50 (SK-MEL-28) | GI50 (T47D) | GI50 (NCI/ADR-RES) | GI50 (IGROV-1) | GI50 (MDA-MB-435) | GI50 (SK-MEL-2) | GI50 (RPMI-8226) | GI50 (786-0) | GI50 (SNB-19) | GI50 (SK-MEL-5) | GI50 (BT-549) | GI50 (HL-60) | GI50 (K562) | GI50 (A549) | GI50 (CAKI-1) | GI50 (LOX IMVI) | GI50 (UO-31) | GI50 (Malme-3M) | GI50 (Hs-578T) |
| --- | --- | --- | --- | --- | --- | --- | --- | --- | --- | --- | --- | --- | --- | --- | --- | --- | --- | --- | --- | --- |
| CN(Cc1cnc2nc(N)nc(N)c2n1)c1ccc(C(=O)NC(CCC(=O)O)C(=O)O)c2ccccc12 (centres undefined) | 0.00441 µM (active) | 0.0805 µM (active) | 0.204 µM (active) | 0.00395 µM (active) | 0.0137 µM (active) | 0.00247 µM (active) | < 0.1 µM (active) | 0.00764 µM (active) | 0.00303 µM (active) | 0.0612 µM (active) | 0.0107 µM (active) | 0.092 µM (active) | 0.000435 µM (active) | 0.000301 µM (active) | 0.00286 µM (active) | 0.00489 µM (active) | 0.000508 µM (active) | 0.00638 µM (active) | 0.0356 µM (active) | 0.0982 µM (active) |
| O=C(O)c1nc2cc(C(F)(F)F)ccc2[nH]c1=O | > 100 µM (inactive) | > 100 µM (inactive) | > 100 µM (inactive) | > 100 µM (inactive) | > 100 µM (inactive) | > 100 µM (inactive) | > 100 µM (inactive) | > 100 µM (inactive) | > 100 µM (inactive) | > 100 µM (inactive) | > 100 µM (inactive) | > 100 µM (inactive) | > 100 µM (inactive) | > 100 µM (inactive) | > 100 µM (inactive) | > 100 µM (inactive) | > 100 µM (inactive) | 60.8 µM (inactive) | > 100 µM (inactive) | > 100 µM (inactive) |
| C/C(=N\NC(=S)NC(C)(C)C)c1nc2cccnc2[nH]1 | 2.82 µM (inactive) | 8.71 µM (inactive) | 0.427 µM (active) | 3.03 µM (inactive) | 3.06 µM (inactive) | 5.37 µM (inactive) | 3.85 µM (inactive) | 6.05 µM (inactive) | 3.02 µM (inactive) | 6.93 µM (inactive) | 2.21 µM (inactive) | 2.55 µM (inactive) | 1.2 µM (inactive) | 1.83 µM (inactive) | 3.29 µM (inactive) | 3.33 µM (inactive) | 3.4 µM (inactive) | 1.06 µM (active) | 4.49 µM (inactive) | 3.36 µM (inactive) |
| CC(=O)NCC1OC2COC(c3ccccc3)OC2C2N=C(c3ccccc3)OC12 (centres undefined) | 45.5 µM (inactive) | 59.6 µM (inactive) | 19.1 µM (inactive) | 42.5 µM (inactive) | – | 85.3 µM (inactive) | 53.6 µM (inactive) | 29.4 µM (inactive) | > 100 µM (inactive) | > 100 µM (inactive) | 39.2 µM (inactive) | 68.1 µM (inactive) | 26.7 µM (inactive) | 32.6 µM (inactive) | 37.8 µM (inactive) | > 100 µM (inactive) | 79.6 µM (inactive) | 39.9 µM (inactive) | 58.7 µM (inactive) | 51.5 µM (inactive) |
| CSC1=C(C)S/C(=C\c2ccc(/C=C3\SC(C)=C(SC)S3)cc2)S1 | > 100 µM (inactive) | > 100 µM (inactive) | > 100 µM (inactive) | > 100 µM (inactive) | > 100 µM (inactive) | > 100 µM (inactive) | > 100 µM (inactive) | – | > 100 µM (inactive) | > 100 µM (inactive) | > 100 µM (inactive) | > 100 µM (inactive) | > 100 µM (inactive) | > 100 µM (inactive) | > 100 µM (inactive) | > 100 µM (inactive) | > 100 µM (inactive) | > 100 µM (inactive) | > 100 µM (inactive) | 83 µM (inactive) |
| CCCCCCc1cc2cc(C(=O)NCc3ccccc3)c(=N)oc2cc1O | > 100 µM (inactive) | > 100 µM (inactive) | > 100 µM (inactive) | > 100 µM (inactive) | > 100 µM (inactive) | > 100 µM (inactive) | > 100 µM (inactive) | > 100 µM (inactive) | > 100 µM (inactive) | > 100 µM (inactive) | > 100 µM (inactive) | > 100 µM (inactive) | > 100 µM (inactive) | > 100 µM (inactive) | > 100 µM (inactive) | > 100 µM (inactive) | > 100 µM (inactive) | – | > 100 µM (inactive) | > 100 µM (inactive) |
| Cc1[nH]n(C2=NCCN2)c(=O)c1Cc1ccccc1 | > 100 µM (inactive) | – | > 100 µM (inactive) | > 100 µM (inactive) | > 100 µM (inactive) | > 100 µM (inactive) | > 100 µM (inactive) | > 100 µM (inactive) | > 100 µM (inactive) | > 100 µM (inactive) | > 100 µM (inactive) | > 100 µM (inactive) | > 100 µM (inactive) | > 100 µM (inactive) | > 100 µM (inactive) | > 100 µM (inactive) | > 100 µM (inactive) | > 100 µM (inactive) | > 100 µM (inactive) | > 100 µM (inactive) |
| CCOC(=O)C(C)c1nc2ccc(C(F)(F)F)cc2[nH]c1=O (centres undefined) | > 100 µM (inactive) | > 100 µM (inactive) | 23.8 µM (inactive) | 37.4 µM (inactive) | – | > 100 µM (inactive) | > 100 µM (inactive) | 28.9 µM (inactive) | > 100 µM (inactive) | > 100 µM (inactive) | 52.7 µM (inactive) | 42 µM (inactive) | 44.8 µM (inactive) | 48.5 µM (inactive) | 73.5 µM (inactive) | > 10 µM (inactive) | 66.2 µM (inactive) | 36.2 µM (inactive) | 97.7 µM (inactive) | 68.4 µM (inactive) |
| CC(=O)NNC1=NN(C(C)=O)C2(S1)C(=O)Nc1ccc(C)cc12 (centres undefined) | 34.2 µM (inactive) | 78.3 µM (inactive) | 23 µM (inactive) | > 100 µM (inactive) | 66.5 µM (inactive) | > 100 µM (inactive) | – | 34.8 µM (inactive) | 84.1 µM (inactive) | 52.5 µM (inactive) | 68.5 µM (inactive) | 47.8 µM (inactive) | 38.3 µM (inactive) | 48.3 µM (inactive) | 94 µM (inactive) | 73.6 µM (inactive) | > 100 µM (inactive) | 32.4 µM (inactive) | 49.7 µM (inactive) | 26.4 µM (inactive) |
| COc1ccc2[nH]c(CCNC(=O)c3cc([N+](=O)[O-])cc([N+](=O)[O-])c3)cc2c1 | – | > 100 µM (inactive) | 29.9 µM (inactive) | > 100 µM (inactive) | 26.5 µM (inactive) | > 100 µM (inactive) | 65.8 µM (inactive) | > 100 µM (inactive) | 21.2 µM (inactive) | 35.6 µM (inactive) | > 100 µM (inactive) | > 100 µM (inactive) | > 100 µM (inactive) | > 100 µM (inactive) | > 100 µM (inactive) | 26.1 µM (inactive) | 64.1 µM (inactive) | > 100 µM (inactive) | > 100 µM (inactive) | 58.9 µM (inactive) |
| C/C(=N\NC(N)=S)c1ccccn1.OB(O)c1ccccc1 | 2.04 µM (inactive) | 9.23 µM (inactive) | 3.8 µM (inactive) | 3.7 µM (inactive) | 4.46 µM (inactive) | 7.55 µM (inactive) | – | 5.87 µM (inactive) | 3.73 µM (inactive) | 10.5 µM (inactive) | 4.63 µM (inactive) | 8.15 µM (inactive) | 1.1 µM (active) | 3.61 µM (inactive) | 5.51 µM (inactive) | 3.63 µM (inactive) | 2.58 µM (inactive) | 2.39 µM (inactive) | 8.63 µM (inactive) | > 100 µM (inactive) |
| O=[N+]([O-])c1cccc(-c2ncc3c(n2)-c2ccccc2C3)c1 | > 100 µM (inactive) | > 100 µM (inactive) | > 100 µM (inactive) | > 100 µM (inactive) | 53.2 µM (inactive) | > 100 µM (inactive) | > 100 µM (inactive) | > 100 µM (inactive) | 22.9 µM (inactive) | 30.3 µM (inactive) | > 100 µM (inactive) | > 100 µM (inactive) | > 100 µM (inactive) | > 100 µM (inactive) | > 100 µM (inactive) | 42.7 µM (inactive) | – | > 100 µM (inactive) | > 100 µM (inactive) | 32.9 µM (inactive) |
| COc1cc2oc3ccccc3c(=O)c2cc1CSc1ccccc1N | 19.5 µM (inactive) | 18.7 µM (inactive) | 7.85 µM (inactive) | 6.5 µM (inactive) | 12 µM (inactive) | 2.47 µM (inactive) | 6.95 µM (inactive) | 9.46 µM (inactive) | 35.9 µM (inactive) | 56.5 µM (inactive) | 13.5 µM (inactive) | 29.3 µM (inactive) | 3.83 µM (inactive) | 3.91 µM (inactive) | 23.4 µM (inactive) | 35.9 µM (inactive) | 29.7 µM (inactive) | – | 18.6 µM (inactive) | 36 µM (inactive) |
| NC(=S)NS(=O)(=O)c1ccc(Cl)cc1 | > 100 µM (inactive) | > 100 µM (inactive) | > 100 µM (inactive) | > 100 µM (inactive) | > 100 µM (inactive) | > 100 µM (inactive) | > 100 µM (inactive) | > 100 µM (inactive) | > 100 µM (inactive) | > 100 µM (inactive) | > 100 µM (inactive) | > 100 µM (inactive) | > 100 µM (inactive) | > 100 µM (inactive) | > 100 µM (inactive) | > 100 µM (inactive) | > 100 µM (inactive) | – | > 100 µM (inactive) | > 100 µM (inactive) |
